pIC50: −log10 of the molar value.
How the values were obtained:
[1] = biological target: T1, glutathione S-transferase (GST)-fused full-length human Syk protein (Homo sapiens, UniProt P43405); experiment: Syk enzyme assay; format: biochemical; conditions: Syk enzyme assay, Test Example 1; read-out: IC50 of Syk-inhibitory activity
T1 construct: (GST)-fused full-length human Syk protein; GST (glutathione S-transferase); purchased Carna Biosciences
Procedure, shortened: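 Baculovirus-expressed enzyme (1.2 ng) was preincubated with compound in HEPES pH 7.0/MgCl2/DTT buffer, 2 min shaking then 13 min at room temperature. Biotin-EDPDYEWPSA-NH2 (0.4 μM final) and ATP (27 μM final) were added for 40 min at room temperature. EDTA stop, streptavidin-XL/PT66-K TR-FRET at 615/665 nm gave IC50.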

[2] = system: THP-1 cells; experiment: TNFα generation assay; format: cell-based, human; conditions: Homo sapiens, THP-1, THP-1 cells; Table 22; read-out: IC50 in TNFα generation assay
Procedure, shortened: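 THP-1 cells differentiated to macrophage-like cells with 10 ng/ml IFN-γ for 2 days, preincubated with compound 30 min at room temperature, then cultured 7 h on plates coated with human IgG (10 μg/ml). Secreted TNFα measured by ELISA or AlphaLISA.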

Row | Structure (SMILES) | pIC50 [1] | pIC50 [2]
1 | NC(=O)c1cc(F)c(N[C@@H]2CCCC[C@@H]2N)nc1Nc1cnc2cc(N3CCOCC3)ccc2c1 (relative stereo) [Example 004-123, 6-(cis-2-aminocyclohexylamino)-5-fluoro-2-((7-morpholinoquinolin-3-yl)amino)-nicotinamide] | > 8.00 | 6.70 to 6.89
2 | NC(=O)c1cc(F)c(N[C@@H]2CCCC[C@@H]2N)nc1Nc1cnc2cc(N)ccc2c1 (relative stereo) [Example 004-125, 6-(cis-2-aminocyclohexylamino)-2-((7-aminoquinolin-3-yl)amino)-5-fluoronicotinamide] | > 8.00 | 6.89 to 7.19
3 | COCCOc1ccc2cc(Nc3nc(N[C@@H]4CCCC[C@@H]4N)c(F)cc3C(N)=O)cnc2c1 (relative stereo) [Example 004-127, 6-(cis-2-aminocyclohexylamino)-5-fluoro-2-((7-(2-methoxyethoxy)quinolin-3-yl)amino)-nicotinamide] | > 8.00 | 6.70 to 6.89
4 | NC(=O)c1cc(F)c(N[C@@H]2CCCC[C@@H]2N)nc1Nc1ccccc1 (relative stereo) [Example 004-129, 6-(cis-2-aminocyclohexylamino)-5-fluoro-2-(phenylamino)nicotinamide] | > 8.00 | 6.89 to 7.19
5 | CC(=O)c1cncc(Nc2nc(N[C@@H]3CCCC[C@@H]3N)c(F)cc2C(N)=O)c1 (relative stereo) [Example 004-132, 2-((5-acetylpyridin-3-yl)amino)-6-(cis-2-aminocyclohexylamino)-5-fluoronicotinamide] | 7.30 to 8.00 | 6.89 to 7.19
6 | NC(=O)c1cc(F)c(N[C@@H]2CCCC[C@@H]2N)nc1Nc1cccc2cnccc12 (relative stereo) [Example 004-159, 6-(cis-2-aminocyclohexylamino)-5-fluoro-2-((isoquinolin-5-yl)amino)nicotinamide] | > 8.00 | 6.89 to 7.19
7 | NC(=O)c1cc(F)c(N[C@@H]2CCCC[C@@H]2N)nc1Nc1cnc2c(c1)OCCO2 (relative stereo) [Example 004-161, 6-(cis-2-aminocyclohexylamino)-2-((2,3-dihydro-[1,4]dioxino[2,3-b]pyridin-7-yl)amino)-5-fluoronicotinamide] | 7.30 to 8.00 | 6.70 to 6.89
8 | NC(=O)c1cc(F)c(N[C@@H]2CCCC[C@@H]2N)nc1Nc1cnc2c(c1)CCC2 (relative stereo) [Example 004-162, 6-(cis-2-aminocyclohexylamino)-2-((6,7-dihydro-5H-cyclopenta[b]pyridin-3-yl)amino)-5-fluoronicotinamide] | > 8.00 | 6.70 to 6.89
9 | NC(=O)c1cc(F)c(N[C@@H]2CCCC[C@@H]2N)nc1Nc1ccc2cnccc2c1 (relative stereo) [Example 004-163, 6-(cis-2-aminocyclohexylamino)-5-fluoro-2-((isoquinolin-6-yl)amino)nicotinamide] | > 8.00 | > 7.19
10 | COc1nccc2cc(Nc3nc(N[C@@H]4CCCC[C@@H]4N)c(F)cc3C(N)=O)ccc12 (relative stereo) [Example 004-164, 6-(cis-2-aminocyclohexylamino)-5-fluoro-2-((1-methoxyisoquinolin-6-yl)amino)-nicotinamide] | > 8.00 | 6.70 to 6.89
11 | COCCOc1nccc2cc(Nc3nc(N[C@@H]4CCCC[C@@H]4N)c(F)cc3C(N)=O)ccc12 (relative stereo) [Example 004-168, 6-(cis-2-aminocyclohexylamino)-5-fluoro-2-((1-(2-methoxyethoxy)isoquinolin-6-yl)amino)-nicotinamide] | > 8.00 | 6.70 to 6.89
12 | COCc1cncc(Nc2nc(N[C@@H]3CCCC[C@@H]3N)c(F)cc2C(N)=O)c1 (relative stereo) [Example 004-188, 6-(cis-2-aminocyclohexylamino)-5-fluoro-2-((5-(methoxymethyl)pyridin-3-yl)amino)nicotinamide] | 7.30 to 8.00 | 6.89 to 7.19
13 | COCc1cc(Nc2nc(N[C@@H]3CCCC[C@@H]3N)c(F)cc2C(N)=O)ccn1 (relative stereo) [Example 004-191, 6-(cis-2-aminocyclohexylamino)-5-fluoro-2-((2-(methoxymethyl)pyridin-4-yl)amino)nicotinamide] | 7.30 to 8.00 | 6.89 to 7.19
14 | NC(=O)c1cc(F)c(N[C@@H]2CCCC[C@@H]2N)nc1Nc1ccc2nc(OCCN3CCOC3=O)ccc2c1 (relative stereo) [Example 004-201, 6-(cis-2-aminocyclohexylamino)-5-fluoro-2-((2-(2-(2-oxooxazolidin-3-yl)ethoxy)quinolin-6-yl)amino)nicotinamide] | > 8.00 | 6.70 to 6.89

Other lines, results leading:

Row | pIC50 [1] | pIC50 [2] | Structure (SMILES)
15 | > 8.00 | 6.89 to 7.19 | NC(=O)c1cc(F)c(N[C@@H]2CCCC[C@@H]2N)nc1Nc1cncc(-c2cnco2)c1 (relative stereo) [Example 004-118, 6-(cis-2-aminocyclohexylamino)-5-fluoro-2-((5-(oxazol-5-yl)pyridin-3-yl)amino)-nicotinamide]
16 | > 8.00 | 6.89 to 7.19 | COc1ccc2cc(Nc3nc(N[C@@H]4CCCC[C@@H]4N)c(F)cc3C(N)=O)cnc2c1 (relative stereo) [Example 004-128, 6-(cis-2-aminocyclohexylamino)-5-fluoro-2-((7-methoxyquinolin-3-yl)amino)nicotinamide]
17 | > 8.00 | 6.89 to 7.19 | NC(=O)c1cc(F)c(N[C@@H]2CCCC[C@@H]2N)nc1Nc1cncc(-c2ccno2)c1 (relative stereo) [Example 004-141, 6-(cis-2-aminocyclohexylamino)-5-fluoro-2-((5-(isoxazol-5-yl)pyridin-3-yl)amino)-nicotinamide]
18 | > 8.00 | 6.89 to 7.19 | NC(=O)c1cc(F)c(N[C@@H]2CCCC[C@@H]2N)nc1Nc1cncc(-c2ccccc2F)c1 (relative stereo) [Example 004-143, 6-(cis-2-aminocyclohexylamino)-5-fluoro-2-((5-(2-fluorophenyl)pyridin-3-yl)amino)-nicotinamide]
19 | > 8.00 | 6.70 to 6.89 | COc1ccccc1-c1cncc(Nc2nc(N[C@@H]3CCCC[C@@H]3N)c(F)cc2C(N)=O)c1 (relative stereo) [Example 004-149, 6-(cis-2-aminocyclohexylamino)-5-fluoro-2-((5-(2-methoxyphenyl)pyridin-3-yl)amino)-nicotinamide]
20 | > 8.00 | 6.70 to 6.89 | NC(=O)c1cc(F)c(N[C@@H]2CCCC[C@@H]2N)nc1Nc1cncc(-c2ccc(F)cc2F)c1 (relative stereo) [Example 004-181, 6-(cis-2-aminocyclohexylamino)-2-((5-(2,4-difluorophenyl)pyridin-3-yl)amino)-5-fluoronicotinamide]
21 | > 8.00 | 6.70 to 6.89 | COc1ccc(-c2cncc(Nc3nc(N[C@@H]4CCCC[C@@H]4N)c(F)cc3C(N)=O)c2)c(OC)c1 (relative stereo) [Example 004-190, 6-(cis-2-aminocyclohexylamino)-2-((5-(2,4-dimethoxyphenyl)pyridin-3-yl)amino)-5-fluoronicotinamide]
22 | > 8.00 | 6.89 to 7.19 | COc1cccc(-c2cncc(Nc3nc(N[C@@H]4CCCC[C@@H]4N)c(F)cc3C(N)=O)c2)c1F (relative stereo) [Example 004-197, 6-(cis-2-aminocyclohexylamino)-5-fluoro-2-((5-(2-fluoro-3-methoxyphenyl)pyridin-3-yl)amino)nicotinamide]
23 | > 8.00 | 6.89 to 7.19 | COc1ccc(-c2cncc(Nc3nc(N[C@@H]4CCCC[C@@H]4N)c(F)cc3C(N)=O)c2)c(F)c1 (relative stereo) [Example 004-198, 6-(cis-2-aminocyclohexylamino)-5-fluoro-2-((5-(2-fluoro-4-methoxyphenyl)pyridin-3-yl)amino)nicotinamide]
24 | > 8.00 | 6.70 to 6.89 | COc1ccc(F)c(-c2cncc(Nc3nc(N[C@@H]4CCCC[C@@H]4N)c(F)cc3C(N)=O)c2)c1 (relative stereo) [Example 004-199, 6-(cis-2-aminocyclohexylamino)-5-fluoro-2-((5-(2-fluoro-5-methoxyphenyl)pyridin-3-yl)amino)nicotinamide]
25 | 7.30 to 8.00 | 6.70 to 6.89 | NC(=O)c1cc(F)c(N[C@@H]2CCCC[C@@H]2N)nc1Nc1cncc(-c2ncccn2)c1 (relative stereo) [Example 004-214, 6-(cis-2-aminocyclohexylamino)-5-fluoro-2-((5-(pyrimidin-2-yl)pyridin-3-yl)amino)nicotinamide]
26 | > 8.00 | 6.89 to 7.19 | NC(=O)c1cc(F)c(N[C@@H]2CCCC[C@@H]2N)nc1Nc1cncc(-c2cccc([N+](=O)[O-])c2)c1 (relative stereo) [Example 004-215, 6-(cis-2-aminocyclohexylamino)-5-fluoro-2-((5-(3-nitrophenyl)pyridin-3-yl)amino)nicotinamide]
27 | > 8.00 | 6.89 to 7.19 | NC(=O)c1cc(F)c(N[C@@H]2CCCC[C@@H]2N)nc1Nc1cncc(-c2cccc(N)c2)c1 (relative stereo) [Example 004-217, 6-(cis-2-aminocyclohexylamino)-2-((5-(3-aminophenyl)pyridin-3-yl)amino)-5-fluoronicotinamide]
28 | > 8.00 | 6.89 to 7.19 | NC(=O)c1cc(F)c(N[C@@H]2CCCC[C@@H]2N)nc1Nc1cncc(-c2ccc(N)cc2)c1 (relative stereo) [Example 004-218, 6-(cis-2-aminocyclohexylamino)-2-((5-(4-aminophenyl)pyridin-3-yl)amino)-5-fluoronicotinamide]
